Assay results: patent publication US7807181B2, “Neisseria mutants, lipooligosaccharides and immunogenic compositions” (Emory University, priority 2002, dated 2010)

Legend:
[1] = system: differentiated U937 and THP-1 human macrophage-like cells; experiment: Cytokine (TNFa, IL-1b, IL-8, IL-10) induction in macrophage-like cells stimulated with endotoxin; format: cell-based; conditions: 2 mg/ml added during the induction assay
From the text: The meningococcal mutant LOS preparations were used to investigate the role of endotoxin structure on the activation of macrophages via the CD14/TLR4-MD-2 receptor complex. Endotoxins were quantified and standardized based on lipid A content. Cytokine (TNFa, IL-1b, IL-8 or IL-10) induction, nitric oxide and reactive oxygen species (ROS) release from differentiated U937 and THP-1 human macrophage-like cells or RAW264.7 murine macrophages stimulated with endotoxin (0.56 pmole/ml, approximately 1 ng/ml) was studied.
Alternatively, LOS from a genetically-defined mutants of the serogroup B N. meningitidis strain NMB (encapsulated, L2 immunotype) (listed in Table I) were initially extracted by the phenol-water method (21). Residual membrane phospholipids (unsaturated fatty acyl residues C18:0) were removed by repeated extraction of the dry LOS samples with 9:1 ethanol:water. The expected LOS fatty acyl components of 3-OHC12:0, 3-OHC14:0 and C12:0 and the absence of membrane phospholipids was assessed by Mass spectroscopy (GC-MS). LOS preparations were examined by SDS-PAGE (22), quantitated and standardized based on the number of lipid A molecules per sample (23). […] The resulting methyl b-trimethylsilylmyristate was identified and quantified by GC-MS analysis. […]

[2] = system: Psf protein (arabinose 5-phosphate isomerase); experiment: Colorimetric assay for keto-pentoses with purified Psf protein; format: biochemical, N. meningitidis; conditions: 37° C., 10 min, 100 mM Tris-HCl pH 7.5, A540
From the text: Psf is the arabinose 5-phosphate isomerase of N. meningitidis. […] To determine if Psf had isomerase activity, a colorimetric assay for keto-pentoses (Bigham et al., 1984) was first conducted using the purified Psf protein, which contained a C-terminal 6×His tag (FIG. 9A). […] The reaction was dependent on the concentration of Psf protein. […] The NMR chemical shifts of the phosphoryl groups of arabinose 5-P and ribulose 5-P are different, thus ^31P NMR can monitor the interconversion between the two sugars. […] The LOS defect in the psf mutant, but not the kdsB mutant, can be complemented by (exogenous) supplementation of arabinose in the growth medium (FIG. 9B), consistent with the identification of the Psf protein as an arabinose 5-phosphate isomerase.
The procedure of Dische and Borenfreund (Dische and Borenfreund, 1951, as modified by Bigham (Bigham, 1984) was used to determine the presence of ketopentoses. Briefly, enzyme was incubated at 37° C. for 10 min in the presence of various aldopentoses (ribose 5-phosphate, erythrose 4-phosphate, glucose 6-phosphate, and arabinose) and 100 mM Tris-HCl (pH 7.5) buffer and assayed as follows. A 250 μl aliquot of the reaction solution was quenched with the addition of 50 μl of a 1.5% cysteine solution followed immediately by 1.5 ml of concentrated H2S04. A 50 μl aliquot of 0.12% carbazole in 95% ethanol was then added, and the solution was heated at 37° C. for 30 min. The absorbance was read at 540 nm. As reported by Bigham et al. (1984), the conversion of 1 μmol of A5P to 1 μmol of Ru5P gave an ΔA of 8.2.

[3] = biological target: T1, CD14/TLR4-MD-2 receptor complex (Homo sapiens, UniProt O00206+Q9Y6Y9); experiment: Activation of receptor complex by synthetic KDO; format: cell-based; conditions: dose ranges from 10 ng-100 mg; data not shown
T1 construct: endogenous in cells
From the text: Acid hydrolysis might affect lipid A phosphate head groups and contribute to attenuation.

T1 sequence (O00206 24-839): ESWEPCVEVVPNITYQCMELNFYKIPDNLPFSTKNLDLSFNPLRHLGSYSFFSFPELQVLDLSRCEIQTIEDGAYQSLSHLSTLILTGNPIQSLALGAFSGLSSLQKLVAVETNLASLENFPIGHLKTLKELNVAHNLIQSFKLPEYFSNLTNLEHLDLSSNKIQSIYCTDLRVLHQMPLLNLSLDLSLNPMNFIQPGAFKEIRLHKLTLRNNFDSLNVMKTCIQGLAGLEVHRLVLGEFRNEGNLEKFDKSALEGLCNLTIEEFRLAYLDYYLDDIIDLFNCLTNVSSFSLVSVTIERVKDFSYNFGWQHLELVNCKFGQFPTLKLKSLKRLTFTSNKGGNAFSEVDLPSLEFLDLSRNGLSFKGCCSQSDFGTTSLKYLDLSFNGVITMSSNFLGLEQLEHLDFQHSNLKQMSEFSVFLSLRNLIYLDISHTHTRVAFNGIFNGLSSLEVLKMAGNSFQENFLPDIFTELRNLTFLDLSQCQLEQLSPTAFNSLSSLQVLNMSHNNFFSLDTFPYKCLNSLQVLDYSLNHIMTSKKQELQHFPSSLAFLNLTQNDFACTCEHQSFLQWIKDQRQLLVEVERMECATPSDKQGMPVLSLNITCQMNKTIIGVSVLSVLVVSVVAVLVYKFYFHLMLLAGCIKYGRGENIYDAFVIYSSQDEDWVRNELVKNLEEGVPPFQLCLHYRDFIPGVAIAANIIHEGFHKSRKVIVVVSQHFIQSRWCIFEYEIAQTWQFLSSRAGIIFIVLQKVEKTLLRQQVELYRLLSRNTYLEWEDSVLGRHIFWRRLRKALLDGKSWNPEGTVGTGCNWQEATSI
T1 sequence (Q9Y6Y9 19-160): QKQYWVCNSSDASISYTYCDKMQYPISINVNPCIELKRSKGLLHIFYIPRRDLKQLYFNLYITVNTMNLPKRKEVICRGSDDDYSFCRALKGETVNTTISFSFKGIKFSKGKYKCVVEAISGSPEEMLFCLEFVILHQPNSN

polymyxin B
effect on meningococcal LOS-induced cytokine release [1]: neutralized

O=C[C@H](O)[C@@H](O)[C@H](O)[C@H](O)COP(=O)(O)O [glucose 6-phosphate]
substrate for the Psf protein [2]: did not serve as substrates

O=C[C@@H](O)[C@H](O)[C@H](O)CO [arabinose]
substrate for the Psf protein [2]: did not serve as substrates

O=C[C@H](O)[C@H](O)[C@H](O)COP(=O)(O)O [ribose 5-phosphate]
substrate for the Psf protein [2]: did not serve as substrates

O=C(O)C(=O)CC(O)C(O)C(O)C(O)CO (stereo not drawn) [Synthetic KDO, 2-keto-3-deoxyoctonic acid]
activation of the CD14/TLR4-MD-2 receptor complex [3]: did not activate

O=C[C@H](O)[C@H](O)COP(=O)(O)O [erythrose 4-phosphate]
substrate for the Psf protein [2]: did not serve as substrates
